Laboratory results as given in ChEMBL document CHEMBL1138020, “Novel fibrinogen receptor antagonists. RGDF mimetics, derivatives of 4-(isoindoline-5-yl)amino-4-oxobutyric acid” (Bioorg Med Chem Lett, 2004).

How the values were obtained:
[1] = biological target: T1, Integrin alpha-IIb/beta-3 (Homo sapiens, UniProt P05106+P08514); test: In vitro inhibition of FITC-labeled fibrinogen binding to alphaIIb-beta3 receptor of human platelets
[2] = biological target: T1, Integrin alpha-IIb/beta-3; test: In vitro binding affinity for FITC-labeled fibrinogen binding to alphaIIb-beta3 receptor of human platelets
[3] = In vitro inhibition of Collagen-induced platelet aggregation in canine platelet rich plasma

T1 sequence (P05106 27-788 limits assumed): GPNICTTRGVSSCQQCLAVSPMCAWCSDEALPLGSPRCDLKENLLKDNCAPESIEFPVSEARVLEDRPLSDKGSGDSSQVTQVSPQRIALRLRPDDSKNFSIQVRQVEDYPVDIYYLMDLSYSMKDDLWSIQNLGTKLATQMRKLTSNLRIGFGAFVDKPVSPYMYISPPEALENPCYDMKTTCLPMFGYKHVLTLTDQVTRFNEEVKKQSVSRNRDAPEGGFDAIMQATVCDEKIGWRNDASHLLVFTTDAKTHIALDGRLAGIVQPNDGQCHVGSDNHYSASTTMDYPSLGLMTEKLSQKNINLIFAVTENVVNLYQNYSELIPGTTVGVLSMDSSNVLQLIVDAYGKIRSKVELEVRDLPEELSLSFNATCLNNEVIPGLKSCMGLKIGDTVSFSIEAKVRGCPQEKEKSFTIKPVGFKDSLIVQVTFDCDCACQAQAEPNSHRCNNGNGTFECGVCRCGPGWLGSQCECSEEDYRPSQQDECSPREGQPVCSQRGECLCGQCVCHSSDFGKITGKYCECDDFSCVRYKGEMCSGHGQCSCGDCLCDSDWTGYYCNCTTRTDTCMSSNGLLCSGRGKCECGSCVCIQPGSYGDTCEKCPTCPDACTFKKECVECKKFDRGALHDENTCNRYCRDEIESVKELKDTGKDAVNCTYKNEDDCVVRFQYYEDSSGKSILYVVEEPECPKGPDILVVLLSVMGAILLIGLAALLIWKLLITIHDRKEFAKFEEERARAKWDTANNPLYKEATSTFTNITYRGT
T1 sequence (P08514 32-887 limits assumed): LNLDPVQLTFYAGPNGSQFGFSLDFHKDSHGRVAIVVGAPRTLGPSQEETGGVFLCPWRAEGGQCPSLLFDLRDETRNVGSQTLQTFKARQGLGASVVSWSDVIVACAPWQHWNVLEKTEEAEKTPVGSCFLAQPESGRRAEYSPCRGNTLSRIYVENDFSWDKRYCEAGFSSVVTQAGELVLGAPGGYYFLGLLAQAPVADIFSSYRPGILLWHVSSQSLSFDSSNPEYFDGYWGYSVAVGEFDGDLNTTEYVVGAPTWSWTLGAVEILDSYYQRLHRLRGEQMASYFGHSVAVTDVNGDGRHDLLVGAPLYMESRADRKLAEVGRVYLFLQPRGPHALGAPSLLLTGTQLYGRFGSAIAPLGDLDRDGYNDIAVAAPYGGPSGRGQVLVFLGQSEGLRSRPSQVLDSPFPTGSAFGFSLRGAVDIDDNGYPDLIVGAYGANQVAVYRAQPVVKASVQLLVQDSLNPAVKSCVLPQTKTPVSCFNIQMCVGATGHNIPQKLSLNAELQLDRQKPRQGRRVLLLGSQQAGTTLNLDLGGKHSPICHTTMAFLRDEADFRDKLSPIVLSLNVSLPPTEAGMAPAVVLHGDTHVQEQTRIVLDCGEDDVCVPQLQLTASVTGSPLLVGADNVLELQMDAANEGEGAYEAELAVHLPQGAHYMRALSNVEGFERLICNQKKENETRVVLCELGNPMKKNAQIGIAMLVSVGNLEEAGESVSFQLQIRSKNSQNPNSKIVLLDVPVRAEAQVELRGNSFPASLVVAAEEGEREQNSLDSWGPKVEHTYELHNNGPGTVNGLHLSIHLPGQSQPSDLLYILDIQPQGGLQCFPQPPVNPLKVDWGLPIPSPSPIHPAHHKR
T1 sequence (P08514 891-1039 limits assumed): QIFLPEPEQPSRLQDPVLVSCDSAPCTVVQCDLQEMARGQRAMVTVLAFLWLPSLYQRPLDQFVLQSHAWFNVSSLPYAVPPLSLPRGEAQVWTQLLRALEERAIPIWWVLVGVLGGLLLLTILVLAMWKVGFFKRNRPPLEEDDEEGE

Q: With `O=C(O)CC(NC(=O)CCC(=O)Nc1ccc2c(c1)CNC2)c1ccccc1` (stereo unspecified) as the compound, how does the IC50 [1] read?
A: 8.3 nM

Q: What about the Ki [2] of the same compound?
A: 4.2 nM

Q: With `O=C(O)CCNC(=O)CCC(=O)Nc1ccc2c(c1)CNC2` as the compound, how does the IC50 [1] read?
A: 10 nM

Q: What about the Ki [2] of the same compound?
A: 7.1 nM

Q: With `N=C(N)c1ccc(NC(=O)CCC(=O)NCCC(=O)O)cc1` as the compound, how does the IC50 [3] read?
A: 1090 nM

Q: For `N=C(N)c1ccc(NC(=O)CCC(=O)NC(CC(=O)O)c2ccccc2)cc1` (stereo unspecified), which IC50 [3] is on record?
A: 290 nM
